How the values were obtained:
[1] = system: lean and DIO C57BL/6J mice; test: i.p. injected glucose tolerance test (IPGTT); format: in vivo, mouse
Protocol: Wild-type lean C57BL/6J and diet-induced obese (DIO) C57BL/6J age-matched male mice were purchased from Jackson Laboratories, and used at ages 14-16, and 24-26 weeks respectively (>20 weeks of high-fat diet for the DIO mice). GCGR^/ mice were bred from heterozygous mice and used between 11 and 17 weeks. […] Blood glucose was measured from tail nicks using AccuCheck (Aviva) meters.
In vivo studies, general information. Wild-type C57BL/6J and diet-induced obese (DIO) C57BL/6J age-matched male adult mice were purchased from Jackson Laboratories. The age range was 13 to 15 weeks for lean mice, and 24 to 26 weeks for DIO mice. All animals were individually housed on a 14-h light, 10-h dark schedule at the Biology Research Infrastructure (BRI), Harvard University. Cage enrichment included cotton bedding and a red plastic hut. Water and food were available ad libitum, consisting respectively of normal chow (Prolab® RHM 3000) or high-fat diet (60 kcal % fat, D12492, Research Diets Inc.). All animal care and experimental procedures were in accordance with the standing committee on the Use of Animals in Research and Teaching at Harvard University, the guidelines and rules established by the Faculty of Arts and Sciences' Institutional Animal Care and Use Committee (IACUC), and the National Institutes of Health Guidelines for the Humane Treatment of Laboratory Animals. Glucagon-receptor knock-out (GCGR^−/−) mice were housed with a 14-h light and 10-h dark schedule and treated in accordance with the guidelines and rules approved by the IACUC at Albert Einstein College of Medicine, NY. Power analysis to determine animal cohort numbers was based on preliminary results and literature precedent, usually requiring between 5 and 8 animals per group. Animals were only excluded from the cohorts in cases of chronic weakness, which occurs among GCGR −/− mice, or when we identified occasional DIO mice with an outlier diabetic phenotype (>200 mg/dL fasting blood glucose). Age- and weight-matched mice were randomized to each treatment group. Double-blinding was not feasible.
Glucose tolerance tests GTT and blood glucose measurements. Prior to a glucose challenge, the animals were fasted for 14 h (8 pm to 10 am, during the dark cycle) while individually housed in a clean cage with inedible wood-chip as a floor substrate, cotton bedding and a red plastic hut. Inhibitor, vehicle or control compounds were administered by a single intraperitoneal (i.p.) injection 30 min prior to the glucose challenge. Dextrose was formulated in sterile saline (3 g in 10 mL total), and the dose was adjusted by fasted body weight. For oGTT, 3.0 g/kg dextrose was administered by gavage at a dose of 10 mL/kg, and for ipGTT, 1.5 g/kg dextrose injected at a dose of 5 mL/kg. Blood glucose was measured using AccuCheck® meters (Aviva) from blood droplets obtained from a small nick at the tip of the tail, at timepoints −45, 0, 15, 30, 45, 60, 90 and 120 min with reference to the time of glucose injection. The area of the blood glucose response profile curve corresponding to each animal was calculated by the trapezoid method^17, using as reference each individual baseline blood glucose measurement prior to glucose administration (t=0). […] Values are reported as mean±S.E.M. Statistics were performed using a two-tail Student's t-test, and significance levels shown in the figures are *p<0.05 versus vehicle control group or **p<0.01 versus vehicle control group.

GCGR−/− mice = test: Glucose tolerance tests in glucagon receptor knockout mice; format: in vivo, mouse; conditions: 80 mg/kg
Text: In vivo studies, general information. Wild-type C57BL/6J and diet-induced obese (DIO) C57BL/6J age-matched male adult mice were purchased from Jackson Laboratories. The age range was 13 to 15 weeks for lean mice, and 24 to 26 weeks for DIO mice. All animals were individually housed on a 14-h light, 10-h dark schedule at the Biology Research Infrastructure (BRI), Harvard University. Cage enrichment included cotton bedding and a red plastic hut. Water and food were available ad libitum, consisting respectively of normal chow (Prolab® RHM 3000) or high-fat diet (60 kcal % fat, D12492, Research Diets Inc.). […]
Glucose tolerance tests GTT and blood glucose measurements. […] Blood glucose was measured using AccuCheck® meters (Aviva) from blood droplets obtained from a small nick at the tip of the tail, at timepoints −45, 0, 15, 30, 45, 60, 90 and 120 min with reference to the time of glucose injection. The area of the blood glucose response profile curve corresponding to each animal was calculated by the trapezoid method^17, using as reference each individual baseline blood glucose measurement prior to glucose administration (t=0). […]

IDE = IDE (Homo sapiens, UniProt P14735); test: Protease assay with fluorogenic peptide substrate Mca-[…](Dnp)-OH; format: biochemical; set-up: recombinant human IDE42-1019 (R&D Systems); purchased R&D Systems
IDE, sequence (P14735 42-1019): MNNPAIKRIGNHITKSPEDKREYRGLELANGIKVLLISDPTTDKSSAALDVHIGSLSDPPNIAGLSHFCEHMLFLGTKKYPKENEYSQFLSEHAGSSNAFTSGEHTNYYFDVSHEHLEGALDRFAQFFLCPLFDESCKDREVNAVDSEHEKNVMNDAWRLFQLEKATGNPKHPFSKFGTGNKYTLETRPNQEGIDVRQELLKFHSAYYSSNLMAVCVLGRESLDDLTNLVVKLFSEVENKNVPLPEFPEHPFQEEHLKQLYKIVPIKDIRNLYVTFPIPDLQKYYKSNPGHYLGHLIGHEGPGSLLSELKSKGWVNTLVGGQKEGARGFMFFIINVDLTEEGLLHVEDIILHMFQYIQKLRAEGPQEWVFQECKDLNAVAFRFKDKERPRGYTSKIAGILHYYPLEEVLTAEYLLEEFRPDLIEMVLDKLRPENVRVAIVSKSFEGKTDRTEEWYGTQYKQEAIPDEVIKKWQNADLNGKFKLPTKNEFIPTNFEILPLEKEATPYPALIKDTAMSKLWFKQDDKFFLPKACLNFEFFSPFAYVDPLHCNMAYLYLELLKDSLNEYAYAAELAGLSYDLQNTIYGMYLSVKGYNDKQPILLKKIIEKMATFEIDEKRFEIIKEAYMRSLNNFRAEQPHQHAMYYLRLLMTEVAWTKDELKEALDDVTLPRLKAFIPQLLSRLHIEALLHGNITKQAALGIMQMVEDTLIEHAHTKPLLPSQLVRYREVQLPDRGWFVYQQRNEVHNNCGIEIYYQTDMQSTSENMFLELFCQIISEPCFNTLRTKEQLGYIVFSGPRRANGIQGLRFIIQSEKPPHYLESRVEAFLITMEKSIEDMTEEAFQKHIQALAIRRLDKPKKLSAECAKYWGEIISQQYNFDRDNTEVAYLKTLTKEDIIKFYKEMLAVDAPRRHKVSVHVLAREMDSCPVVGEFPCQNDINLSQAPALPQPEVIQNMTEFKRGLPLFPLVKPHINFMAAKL
Protocol: All data points and error bars represent mean±SEM. Significance tests were performed using two-tail Student's t-test, and significance levels shown in the figures are p<0.05 (*) or p<0.01 (**) versus the vehicle-only control group. The in vitro selection of the DNA-templated macrocycle libraryl^16,17 used 20 μg His6-tagged mouse IDE immobilized on cobalt magnetic beads (Dynabeads, Invitrogen). IDE proteolytic activity was assayed with fluorogenic peptide Mca-[…](Dnp)-OH (R&D). IDE inhibition was confirmed using an anti-insulin antibody time-resolved FRET assay (Cysbio), and using an LCMS assay for CGRP cleavage fragments CGRP1-17 and CGRP18-37 in plasma^18. […] Protease assays with fluorogenic peptide substrates. […] (R&D). All assay data points were obtained in duplicate.

IDE (R&D) = IDE (R&D) (Homo sapiens, UniProt P14735); test: Yonetani-Theorell double inhibitor kinetic assay; format: biochemical; set-up: recombinant human IDE42-1019 (R&D Systems); purchased R&D Systems; conditions: 6b together with substrate mimetic Ii1
IDE (R&D), sequence (P14735 42-1019): as above
Text: Protease assays with fluorogenic peptide substrates. […] All assay data points were obtained in duplicate.

IC50 (IDE) [nM] | mode of double inhibition with Ii1 (IDE (R&D)) | Structure (SMILES) | IPGTT response at low dose ([1]; DIO mice, 40 mg/kg) | glucose response profile in IPGTT ([1]; DIO mice, 60 mg/kg, lower over initial 30 min, hyperglycemic rebound from 1 h) | IPGTT response at high dose ([1]; DIO mice, 90 mg/kg) | effective dose ([1]; i.p., 80 mg/kg lean (25 g), 60 mg/kg DIO (35-45 g)) [mg/mouse] | glucose tolerance after i.p. glucose injection ([1]; lean and DIO mice, glucose 1.5 g/kg i.p., vs vehicle) | response to i.p. injected glucose (GCGR−/− mice; 6bK vs vehicle) | oral glucose tolerance (GCGR−/− mice; vs vehicle)
 |  | NCCCC[C@@H]1NC(=O)/C=C/C(=O)N[C@H](C(N)=O)CCCCNC(=O)[C@@H](Cc2ccc(C(=O)c3ccccc3)cc2)NC(=O)[C@H](CC2CCCCC2)NC1=O [Compound 6bK] | too low to achieve a consistent effect | biphasic response | respond similarly to 60 mg/kg | ~2 | impaired glucose tolerance | virtually identical | improvement
60 | synergistic | NC(=O)CCC1NC(=O)C=CC(=O)NC(C(N)=O)CCCCNC(=O)C(Cc2ccc(C(=O)c3ccccc3)cc2)NC(=O)C(CC2CCCCC2)NC1=O (stereo not drawn) [Compound 6b] |  |  |  |  |  |  | 

Source: patent US20160282364A1, “ASSAY FOR INSULIN-DEGRADING ENZYME (IDE) INHIBITORS” (PRESIDENT AND FELLOWS OF HARVARD COLLEGE, priority 2013, published 2016)
